Results published in BindingDB's records for doi:10.1021/acs.jmedchem.0c00249 (China Pharmaceutical University, 2020).

Key:
[1] = Inhibition of SHP2 E76K mutant in splenocytes derived from JMML patient assessed as reduction in cell proliferation in presence of GM-CSF
[2] = Inhibition of SHP2 E76K mutant in splenocytes derived from JMML patient assessed as reduction in GM-CSF induced colony formation of myeloid blast cells measured after 14 days

IC50 [1]: 3.09 µM
IC50 [2]: 7.24 µM
SMILES: Cc1cc(C)c2[nH]c3nc(SCC(=O)Nc4cccc5ccccc45)nnc3c2c1
